Assay results as given in patent US12570612B2, “Substituted nitrogen heterocyclic compound and anesthetic effect thereof” (priority 2019, dated 2026).
Entries after “also recorded” stand apart in the source; their conditions may differ. Where two headings read alike, the source gives them in different places.

What was measured:
Sprague-Dawley rats [1] = assay: Continuous infusion at 2 times the MIR for 1 hour, Group B compounds; assay type: in vivo; settings: for Recovery time after stopping infusion: after 1 hour continuous infusion at 2 times the MIR; for Recovery time after stopping infusion / Onset time: rats; for Onset time: continuous tail vein infusion at 2 times the MIR, emulsion
Sprague-Dawley rats [2] = assay: animal or person; settings: for ED50: LORR in rats, tail vein, brackets = 95% confidence limit; for Approximate therapeutic index / Minimal lethal dose: rats
Protocol: (§1) Adult male Sprague-Dawley rats (250-300 g) were selected for the experiment. […] The anesthesia effects of the compounds were assessed in rats using a LORR assay and a period >30 s was considered as an indicator of general anesthesia.

H295R cell line [3] = assay: Adrenocortical function in vitro test: secretion of cortisol and corticosterone, Group B compounds; assay type: cell-based; settings: H295R cells; for EC50: 0.1-10000 nM, HPLC-MS/MS
Sprague-Dawley rats [4] = assay: Pharmacological effect and adverse reactions under the equivalent dose (2ED50), Group C compounds; assay type: in vivo
Text: (§2) Evaluation index: onset time: from the completion of drug injection to the disappearance of forepaw righting reflex in rats; Duration of anesthesia: the time from the disappearance of rat forepaw righting reflex to the recovery of rat forepaw righting reflex; Recovery time of anesthesia: the time from the […] to complete recovery;

Sprague-Dawley rats [5] = assay: animal or person; assay type: in vivo; settings: LORR, up and down method, tail vein, rats, class symbols
Text: (§3) Evaluating indicator: The end point of anesthesia: LORR was used as the end point of anesthesia; General anesthesia effect: the disappearance of forepaw righting reflex in rats lasting for 30 seconds is taken as the index of general anesthesia effect; Anesthesia recovery index: the recovery of rat forepaw righting reflex was used as the index of anesthesia recovery.

Sprague-Dawley rats [6] = tested on: Sprague-Dawley rats
Protocol: Adult male Sprague-Dawley rats with body weight ranging from 250 to 300 gm were selected for continuous infusion test. […] Time to recovery of righting reflex from stopping infusion, and time to fully awake from stopping infusion were recorded.

H295R cell line [7] = assay: Adrenocortical function in vitro test: secretion of cortisol and corticosterone, Group A compounds; assay type: cell-based; settings: H295 cells; for EC50: Homo sapiens, 0.1-10000 nM, HPLC-MS/MS
Sprague-Dawley rats [8] = assay: animal or person
Protocol: as §1

Sprague-Dawley rats [9] = assay: Pharmacological characteristics at equivalent doses (2ED50), Group A compounds; assay type: in vivo; settings: 2ED50, tail vein
Sprague-Dawley rats [10] = assay: animal or person; assay type: in vivo; settings: LORR, up and down method, tail vein, rats, class symbols; remark: listed apart in the source
Text: as §3, with “the disappearance of forepaw righting reflex (lorr)” for “LORR”

Sprague-Dawley rats [11] = assay: Pharmacological effect and adverse reactions under the equivalent dose (2ED50), Group D compounds; assay type: in vivo
Text: as §2

[12] = continuous infusion 2 x MIR 1 hour, rats affected/rats
[13] = read-out: EC50 (Corticosterone)
[14] = 2ED50, tail vein, rats, n=8, unit min
[15] = equivalent dose (2ED50), number of rats of n = 8
[16] = Rattus norvegicus, read-out: ED50
[17] = Homo sapiens, NCI-H295R, read-out: EC50 (Corticosterone)
[18] = Homo sapiens, NCI-H295R, read-out: EC50 (Cortisol)
[19] = equivalent dose (2 × ED50), number of rats of n = 8

Structure (SMILES) | Recovery time after stopping infusion (Sprague-Dawley rats [1]) [min] | Types and incidence of adverse reactions: Tremor (Sprague-Dawley rats [1]; [12]) | Onset time (Sprague-Dawley rats [1]) [min] | ED50 (Sprague-Dawley rats [2]) | Approximate therapeutic index (Sprague-Dawley rats [2]) | Minimal lethal dose (Sprague-Dawley rats [2]) [mg/kg] | Corticosterone as an indicator to determine the presence of inhibition (H295R cell line [3]) | Cortisol as an indicator to determine the presence of inhibition (H295R cell line [3]) | EC50 (H295R cell line [3]; [13]) [nM] | EC50 (H295R cell line [3]; read-out: EC50 (Cortisol)) [nM] | also measured
CCOC(=O)c1nnn([C@H](C)c2ccccc2)c1Br [Compound B100] | 15 to 17 | Tremor(2/6), Tongue | 5 to 6 | D (D indicates that the measured ED50 is in the range of 2.00-10.00 mg/kg (excluding 2.00 mg/kg, including 10.00 mg/kg)) | >2 | >18 | 0 | 0 | > 1000 | > 1000 | Types and incidence of adverse reactions: Tongue stretching (Sprague-Dawley rats [1]; [12]): stretching(3/6)
C[C@H](c1ccccc1)n1nncc1C(=O)OC(C)(C)C [Compound B12] | 13 to 15 | Tremor(3/6) | 5 to 6 | A (A indicates that the measured ED50 is in the range of 0.04-0.50 mg/kg (including 0.04 and 0.50 mg/kg)) | >16 | >5 | 0 | 0 | > 1000 | > 1000 | –
CCOC(=O)c1c(Br)nnn1[C@H](C)c1ccccc1 [Compound B118] | 13 to 15 | Tremor(4/6), Tongue | 6 to 7 | C (C indicates that the measured ED50 is in the range of 1.00-2.00 mg/kg (excluding 1.00 mg/kg, including 2.00 mg/kg)) | >12 | >17 | 0 | 0 | > 1000 | > 1000 | Types and incidence of adverse reactions: Tongue stretching (Sprague-Dawley rats [1]; [12]): stretching(4/6)
CC#CCOCC(=O)c1ccnn1[C@H](C)c1ccccc1 [Compound C1] | – | – | – | – | – | – | – | – | – | – | Righting reflex duration (Sprague-Dawley rats [4]; 2ED50, tail vein, rats, n=8): 0.90 ± 0.30 min; Sedation duration (Sprague-Dawley rats [4]; 2ED50, tail vein, rats, n=8): 9.06 ± 1.21 min; Onset time (Sprague-Dawley rats [4]; [14]): <1 min; Adverse reaction: Convulsions (Sprague-Dawley rats [4]; [15]): 0; Adverse reaction: Cough, broken-winded (Sprague-Dawley rats [4]; [15]): 0; Adverse reaction: Euphoria (Sprague-Dawley rats [4]; [15]): 2; Adverse reaction: Red urine (Sprague-Dawley rats [4]; [15]): 8; Adverse reaction: Slower breathing, Tetany convulsion (Sprague-Dawley rats [4]; [15]): 0; Adverse reaction: Systemic stiffness, Convulsions, Opisthotonus (Sprague-Dawley rats [4]; [15]): 0; Adverse reaction: Tongue stretching (Sprague-Dawley rats [4]; [15]): 1; Adverse reaction: Tremor (Sprague-Dawley rats [4]; [15]): 0; Adverse reaction: the four limbs rigidity (Sprague-Dawley rats [4]; [15]): 0; ED50 (Sprague-Dawley rats [5]): ++++ (++++ indicates that the measured ED50 is in the range of 2.00-10.00 mg/kg (excluding 2.00 mg/kg, including 6.00 mg/kg))
C[C@H](c1ccccc1)n1nncc1C(=O)OC1CCC1 [Compound B6] | 14 to 16 | Tremor(2/6), Tongue | 4 to 6 | A (A indicates that the measured ED50 is in the range of 0.04-0.50 mg/kg (including 0.04 and 0.50 mg/kg)) | >71 | >10 | 0 | 0 | > 100 | > 100 | Types and incidence of adverse reactions: Tongue stretching (Sprague-Dawley rats [1]; [12]): stretching(2/6)
C=C=CC(C)(C)OC(=O)c1ccnn1[C@H](C)c1ccccc1 [Compound A14] | – | – | – | – | – | – | – | – | – | – | Recovery time after stopping infusion (Sprague-Dawley rats [6]; LORR maintained for 1 hour, 2 times the MIR): 10 to 14 min; Onset time (Sprague-Dawley rats [6]; continuous infusion, 2 times the MIR): 6 to 7 min; Types and incidence of adverse reactions (Sprague-Dawley rats [6]; continuous infusion, (animals affected/animals)): Tremor(1/6),; Corticosterone as an indicator to determine the presence of inhibition (H295R cell line [7]): 0; Cortisol as an indicator to determine the presence of inhibition (H295R cell line [7]): 0; EC50 (H295R cell line [7]; [13]): > 1000 nM; EC50 (H295R cell line [7]; read-out: EC50 (Cortisol)): > 1000 nM; ED50 (Sprague-Dawley rats [8]; Rattus norvegicus): 1 to 2 mg/kg; Approximate therapeutic index (Sprague-Dawley rats [8]; rats): >8; Minimal lethal dose (Sprague-Dawley rats [8]; rats): >11 mg/kg; Onset time (Sprague-Dawley rats [9]): 0.78 ± 0.22 min; Righting reflex duration (Sprague-Dawley rats [9]): 1.20 ± 0.72 min; Types and incidence of adverse reactions (Sprague-Dawley rats [9]; (animals affected/animals)): Red urine(5/5), Four limbs; also recorded: Tremor(1/5)
C[C@H](c1ccccc1)n1nnc(Cl)c1C(=O)SC1CCC1 [Compound B80] | 12 to 16 | Tremor(5/6) | 3 to 5 | D (D indicates that the measured ED50 is in the range of 2.00-10.00 mg/kg (excluding 2.00 mg/kg, including 10.00 mg/kg)) | >3 | >16 | 0 | 0 | > 1000 | > 1000 | –
C[C@H](c1ccccc1)n1cncc1C(=O)COCC1CCC1 [Compound C29] | – | – | – | – | – | – | – | – | – | – | ED50 (Sprague-Dawley rats [5]; [16]): 2 to 10 mg/kg
CC#CCOCC(OC)(OC)C(=O)c1cncn1[C@H](C)c1ccccc1 [Compound D73] | – | – | – | – | – | – | – | – | – | – | ED50 (Sprague-Dawley rats [10]): +++++ (+++++ indicates that the measured ED50 is greater than 6.00 mg/kg (excluding 6.00 mg/kg))
CC#CC(=O)c1cncn1[C@H](C)c1ccccc1 [Compound C54] | – | – | – | – | – | – | – | – | – | – | ED50 (Sprague-Dawley rats [5]; [16]): 20 to 30 mg/kg
CC#CCOC(=O)C(=O)c1cncn1[C@H](C)c1ccccc1 [Compound D84] | – | – | – | – | – | – | – | – | – | – | ED50 (Sprague-Dawley rats [10]; [16]): 2 to 6 mg/kg
C=C=CC1(OC(=O)c2cnnn2[C@H](C)c2ccccc2)COC1 [Compound B3] | 15 to 16 | Tremor(4/6), Tongue | 3 to 4 | – | >32 | >6 | 0 | 0 | – | – | Types and incidence of adverse reactions: Tongue stretching (Sprague-Dawley rats [1]; [12]): stretching(3/6); ED50 (Sprague-Dawley rats [2]; Rattus norvegicus): 0.04 to 0.5 mg/kg; EC50 (H295R cell line [3]; [17]): > 1000 nM; EC50 (H295R cell line [3]; [18]): > 1000 nM
C[C@H](c1ccccc1)n1nncc1C(=O)OC1(C)COC1 [Compound B14] | – | Tremor(3/6) | 5 to 6 | – | >5 | >7 | 0 | 0 | – | – | ED50 (Sprague-Dawley rats [2]; Rattus norvegicus): 1 to 2 mg/kg; EC50 (H295R cell line [3]; [17]): > 1000 nM; EC50 (H295R cell line [3]; [18]): > 1000 nM
CCOC(OC)(OC)C(=O)c1ccnn1[C@H](C)c1ccccc1 [Compound D3] | – | – | – | – | – | – | – | – | – | – | ED50 (Sprague-Dawley rats [10]; [16]): 2 to 6 mg/kg; Righting reflex duration (Sprague-Dawley rats [11]; 2ED50, tail vein, rats, n=8): 1.25 ± 0.27 min; Sedation duration (Sprague-Dawley rats [11]; 2ED50, tail vein, rats, n=8): 6.26 ± 1.50 min; Onset time (Sprague-Dawley rats [11]; [14]): <1 min; Adverse reaction: Convulsions (Sprague-Dawley rats [11]; [19]): 0; Adverse reaction: Cough, broken-winded (Sprague-Dawley rats [11]; [19]): 0; Adverse reaction: Euphoria (Sprague-Dawley rats [11]; [19]): 0; Adverse reaction: Four limbs rigidity (Sprague-Dawley rats [11]; [19]): 1; Adverse reaction: Red urine (Sprague-Dawley rats [11]; [19]): 8; Adverse reaction: Slower breathing, Tetany convulsion (Sprague-Dawley rats [11]; [19]): 0; Adverse reaction: Systemic stiffness, Convulsions, Opisthotonus (Sprague-Dawley rats [11]; [19]): 0; Adverse reaction: Tongue stretching (Sprague-Dawley rats [11]; [19]): 0; Adverse reaction: Tremor (Sprague-Dawley rats [11]; [19]): 1
CCC(CC)OC(=O)C(=O)c1cncn1[C@H](C)c1ccccc1 [Compound D83] | – | – | – | – | – | – | – | – | – | – | ED50 (Sprague-Dawley rats [10]; [16]): > 6 mg/kg
CC(=O)C1=C(OC(=O)c2c(F)nnn2[C@H](C)c2ccccc2)CCCC1 [Compound B47] | 7 to 15 | Tremor(4/6), | 3 to 4 | C (C indicates that the measured ED50 is in the range of 1.00-2.00 mg/kg (excluding 1.00 mg/kg, including 2.00 mg/kg)) | >9 | >13 | 0 | 0 | > 100 | > 100 | Types and incidence of adverse reactions: Forelimbrigidity (Sprague-Dawley rats [1]; [12]): Forelimbrigidity(1/6)
